According to publication PMC4113806, “Characterization of ACE Inhibitory Peptides from Mactra veneriformis Hydrolysate by Nano-Liquid Chromatography Electrospray Ionization Mass Spectrometry (Nano-LC-ESI-MS) and Molecular Docking” (Marine Drugs, 2014):
“And” between values parts separate entries of the source, which are not always exact repeats. Equal values may be shown once. Residues, ends and D or L forms follow the SMILES beside them. No end group written: not given here.

biological target: T1, angiotensin I-converting enzyme (ACE) (Oryctolagus cuniculus, UniProt P12822); experiment: ACE inhibitory activity assay (HHL substrate, HPLC detection of hippuric acid); type: biochemical; details: chemically synthesized peptides
T1 construct: purchased Sigma Chemical Co. (St. Louis, MO, USA)
T1 sequence (P12822 34-1310): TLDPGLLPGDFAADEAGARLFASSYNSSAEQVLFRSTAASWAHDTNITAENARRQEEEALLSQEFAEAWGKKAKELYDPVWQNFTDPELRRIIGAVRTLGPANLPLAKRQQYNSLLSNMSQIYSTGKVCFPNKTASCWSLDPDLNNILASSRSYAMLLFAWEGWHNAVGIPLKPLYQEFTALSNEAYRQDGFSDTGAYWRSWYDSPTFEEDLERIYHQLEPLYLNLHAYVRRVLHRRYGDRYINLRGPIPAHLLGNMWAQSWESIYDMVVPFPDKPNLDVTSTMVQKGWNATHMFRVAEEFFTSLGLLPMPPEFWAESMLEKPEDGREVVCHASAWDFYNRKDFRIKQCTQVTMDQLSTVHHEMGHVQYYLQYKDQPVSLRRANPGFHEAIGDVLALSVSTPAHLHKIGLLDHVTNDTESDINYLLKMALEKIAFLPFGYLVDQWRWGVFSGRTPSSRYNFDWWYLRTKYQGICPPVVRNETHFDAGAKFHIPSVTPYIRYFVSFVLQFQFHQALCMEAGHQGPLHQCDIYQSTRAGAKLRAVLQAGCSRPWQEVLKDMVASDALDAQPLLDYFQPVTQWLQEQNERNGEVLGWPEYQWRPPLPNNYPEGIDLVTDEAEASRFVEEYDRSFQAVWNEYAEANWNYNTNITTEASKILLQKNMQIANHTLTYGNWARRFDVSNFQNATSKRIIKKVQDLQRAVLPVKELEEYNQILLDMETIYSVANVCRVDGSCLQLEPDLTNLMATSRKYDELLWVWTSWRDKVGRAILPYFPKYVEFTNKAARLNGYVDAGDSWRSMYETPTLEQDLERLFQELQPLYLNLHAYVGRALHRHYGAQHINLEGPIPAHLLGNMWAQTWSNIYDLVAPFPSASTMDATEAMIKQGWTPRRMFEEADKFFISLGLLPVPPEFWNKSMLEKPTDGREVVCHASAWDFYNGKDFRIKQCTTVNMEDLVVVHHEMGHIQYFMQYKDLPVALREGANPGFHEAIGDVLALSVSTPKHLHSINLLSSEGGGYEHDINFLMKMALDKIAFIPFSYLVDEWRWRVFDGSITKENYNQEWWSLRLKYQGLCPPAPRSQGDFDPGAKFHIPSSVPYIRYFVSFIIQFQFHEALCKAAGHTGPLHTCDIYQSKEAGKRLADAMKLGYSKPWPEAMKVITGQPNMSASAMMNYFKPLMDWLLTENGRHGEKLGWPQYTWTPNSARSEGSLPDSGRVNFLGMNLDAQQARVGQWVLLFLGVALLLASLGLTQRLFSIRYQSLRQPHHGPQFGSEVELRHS
Procedure: ACE inhibitory activity was measured as previously described by Cushman and Cheung with minor modifications. A 10 μL sample solution (50 mM borate, pH 8.3) was added to 30 μL 2.5 mM HHL solution and incubated for 5 min at 37 °C. Subsequently, 20 μL of 0.1 U/mL ACE solution (50 mM borate, 0.3 M NaCl, pH 8.3) was added and the mixture was incubated at 37 °C for 60 min. The reaction was terminated by adding 70 μL of 1 M HCl. A blank sample of buffer alone was used as a negative control. Samples were filtered through a 0.45 μm nylon syringe filter and then separated on a C18 column (4.6 mm × 150 mm, 5 μm). HA and HHL were detected by absorbance at 228 nm. The column was eluted at a flow rate of 0.8 mL/min using a mobile phase composed of (A) 0.05% TFA in water and (B) 0.05% TFA in acetonitrile. The elution was carried out using a gradient of 10%–60% B in the first 10 min followed by 60%–10% B in the next 2 min. HA was quantified by integration of peak areas (A). Percent ACE inhibition was calculated according to the following equation: [drawing 1] (1)
The ACE inhibitory peptides identified by nano-LC MS/MS were synthesized using the solid phase method and purified by HPLC by GenScript Corporation (Nanjing, China). The ACE inhibitory activity of these chemically synthesized peptides was determined as described in Section 3.3.

Going from `N=C(N)NCCC[C@H](NC(=O)[C@H](CCCCN)NC(=O)[C@@H](N)Cc1ccccc1)C(=O)O` [FKR] (H-Phe-Lys-Arg-OH) to `CC(C)C[C@H](NC(=O)[C@H](C)NC(=O)[C@@H](N)CC(C)C)C(=O)N[C@@H](CCCNC(=N)N)C(=O)O` [LALR] (H-LALR-OH), the IC50 rises from 77.9 µM to 1270 µM (16-fold). The first is the more potent here.

First: CC(C)C[C@H](N)C(=O)N[C@@H](CCC(=O)O)C(=O)NCC(=O)N[C@@H](CCCNC(=N)N)C(=O)O [LEGR] (H-LEGR-OH)
Second: CC(C)C[C@H](N)C(=O)N[C@@H](Cc1ccccc1)C(=O)N[C@@H](CCCNC(=N)N)C(=O)O [LFR] (H-Leu-Phe-Arg-OH)
The IC50 of the first is 34-fold higher: 1090 µM for the first, 31.8 µM for the second.

First: CC(C)C[C@H](NC(=O)[C@H](CCCCN)NC(=O)[C@@H](N)CC(C)C)C(=O)N1CCC[C@H]1C(=O)O [LKLP] (H-LKLP-OH)
Second: CC(C)C[C@H](NC(=O)[C@H](CC(C)C)NC(=O)[C@@H](N)CC(C)C)C(=O)N[C@@H](CCCNC(=N)N)C(=O)O [LLLR] (H-LLLR-OH)
The IC50 of the first is 2.7-fold lower: 367 µM for the first, 1000 µM for the second. The first is the more potent here.

First: CC(C)C[C@H](NC(=O)[C@@H](N)CC(C)C)C(=O)N[C@@H](CCCNC(=N)N)C(=O)N[C@@H](Cc1c[nH]cn1)C(=O)O [LLRH] (H-LLRH-OH)
Second: CC(C)C[C@H](N)C(=O)N[C@@H](CCCNC(=N)N)C(=O)O [LR]
The IC50 of the first is 1.9-fold higher: 308 µM for the first, 158 µM for the second.

First: CC(C)C[C@H](N)C(=O)N[C@H](C(=O)N[C@@H](CCCCN)C(=O)N[C@@H](Cc1ccccc1)C(=O)O)C(C)C [LVKF] (H-LVKF-OH)
Second: NC(N)=NCCC[C@H](NC(=O)[C@@H](N)CCCN=C(N)N)C(=O)O [RR] (H-Arg-Arg-OH)
The IC50 of the first is 20-fold lower: 24.6 µM for the first, 482 µM for the second. The first is the more potent here.

Compared with `CC(C)[C@H](N)C(=O)N[C@@H](CCCCN)C(=O)N[C@@H](Cc1ccccc1)C(=O)O` [VKF] (H-Val-Lys-Phe-OH), HFEAMR [HFEAMR] is 18-fold higher in IC50: 10.4 µM for the first, 192 µM for the second.

LASPTM [LASPTM] and LFVAAP [LFVAAP] are within 1.5-fold of each other in IC50: 59.8 µM for the first, 70.2 µM for the second.

First: LGALPF [LGALPF]
Second: LGECGGR [LGECGGR]
The IC50 of the first is 12-fold higher: 2690 µM for the first, 233 µM for the second. The second is the more potent here.

Compared with LLHSPP [LLHSPP], LLMPK [LLMPK] is 3.1-fold higher in IC50: 222 µM for the first, 686 µM for the second.

First: LYHVL [LYHVL]
Second: MPFLFK [MPFLFK]
The IC50 of the first is 5.3-fold lower: 17.5 µM for the first, 92.4 µM for the second. The first is the more potent here.

Going from PLFPK [PLFPK] to VFKAF [VFKAF], the IC50 rises from 41.3 µM to 100 µM (2.4-fold). The first is the more potent here.

In the case of VVCVPW [VVCVPW], the IC50 is reported as 4.07 µM and 4.1 µM.
